Drawing on patent US12673927B2, “Substituted aminothiazoles as DGKzeta inhibitors for immune activation” (Deutsches Krebsforschungszentrum, priority 2020, dated 2026), this text covers IC50 for seven compounds.

Bounds are passed on as bounds.

In one assay the target is T1, human DGKζ (Homo sapiens, UniProt Q13574).
T1 construct: made in house; host or cells: Sf9 insect cells, baculovirus
T1 sequence (Q13574 with tags, fused parts or gaps): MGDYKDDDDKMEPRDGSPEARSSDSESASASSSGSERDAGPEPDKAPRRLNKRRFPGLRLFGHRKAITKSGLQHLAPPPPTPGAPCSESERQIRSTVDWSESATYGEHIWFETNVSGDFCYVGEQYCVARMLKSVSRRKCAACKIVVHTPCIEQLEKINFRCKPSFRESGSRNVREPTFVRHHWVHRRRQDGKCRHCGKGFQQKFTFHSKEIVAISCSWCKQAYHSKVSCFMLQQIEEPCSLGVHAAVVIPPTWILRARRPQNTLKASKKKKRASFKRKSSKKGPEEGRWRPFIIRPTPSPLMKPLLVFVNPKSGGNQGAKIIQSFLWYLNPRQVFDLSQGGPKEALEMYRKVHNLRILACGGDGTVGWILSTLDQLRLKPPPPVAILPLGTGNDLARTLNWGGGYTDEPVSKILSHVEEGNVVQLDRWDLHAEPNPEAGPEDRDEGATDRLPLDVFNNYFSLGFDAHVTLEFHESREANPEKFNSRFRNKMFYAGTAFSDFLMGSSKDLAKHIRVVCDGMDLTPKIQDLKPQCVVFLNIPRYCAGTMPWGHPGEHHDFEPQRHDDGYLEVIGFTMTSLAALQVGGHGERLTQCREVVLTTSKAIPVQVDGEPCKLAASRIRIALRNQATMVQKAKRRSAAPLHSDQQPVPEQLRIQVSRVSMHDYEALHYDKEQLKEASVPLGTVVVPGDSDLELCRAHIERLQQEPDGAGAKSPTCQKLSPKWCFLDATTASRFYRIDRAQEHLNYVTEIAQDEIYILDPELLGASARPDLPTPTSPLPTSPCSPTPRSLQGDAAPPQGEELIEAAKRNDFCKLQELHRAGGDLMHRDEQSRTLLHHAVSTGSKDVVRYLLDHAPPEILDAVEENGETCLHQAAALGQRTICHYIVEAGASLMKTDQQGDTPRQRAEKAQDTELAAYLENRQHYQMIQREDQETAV
The experiment in a line: Human DGKζ kinase activity inhibition assay (ADP-Glo). Conditions: intermediates (lacking the R2 side chain; comparative); highest test concentration 20 μM; read-out: IC50 values of intermediates in in vitro human DGKζ kinase activity inhibition assays. It is filed as biochemical. The procedure:
Human DGKζ Kinase Activity Inhibition Assay
Human diacylglycerol kinase zeta (DGKζ) inhibitory activity of compounds of the present invention was quantified employing the human DGKζ kinase activity assay as described in the following paragraphs. In essence, the enzyme activity was measured by quantification of the adenosine-di-phosphate (ADP) generated as a co-product of the enzyme reaction via the “ADP-Glo™ Kinase Assay” kit from the company Promega. This detection system works as follows: In a first step the adenosine-tri-phosphate (ATP) not consumed in the kinase reaction is quantitatively converted to cyclic adenosine-mono-phosphate (cAMP) employing an adenylate cyclase (“ADP-Glo-reagent”), then the adenylate cyclase is stopped and the ADP generated in the kinase reaction is converted to ATP, which subsequently generates in a luciferase-based reaction a glow-luminescence signal (“Kinase Detection Reagent”).
C-terminally FLAG-tagged, recombinant full-length human DGKζ (inhouse expressed in baculovirus infected insect cells, purified using anti-Flag pulldown and size exclusion chromatography) was used as enzyme. As an alternative, commercially available enzyme by Carnabio can be used. As substrate for the kinase, 1,2-dioleoyl-sn-glycerol, reconstituted in octyl-β-D-glucopyranoside micelles, was used. […] Subsequently, 22.55 volumes of a 510 mM solution of octyl-β-D-glucopyranoside (Sigma-Aldrich, Cat. #08001-10G) in 50 mM MOPS buffer (pH 7.4) were added, and the mixture was sonicated in an ultrasonic bath for 20 s. Then 35 volumes of 50 mM MOPS buffer (pH 7.4) were added to yield a solution of 0.28 mM 1,2 dioleoyl-sn-glycerol and 200 mM octyl-β-D-glucopyranoside, which was aliquoted, flash-frozen in liquid nitrogen, and stored at −20° C. until use.
For the assay 50 nl of a 100-fold concentrated solution of the test compound in dimethyl sulfoxide (DMSO, Sigma) was pipetted into either a white 1536-well or a white low-volume 384-well microtiter plate (both Greiner Bio-One, Frickenhausen, Germany). […] The concentration of DGKζ was adjusted depending of the activity of the enzyme lot and was chosen appropriate to have the assay in the linear range, a typical concentration is about 0.1 nM. The reaction was stopped by the addition of 2.5 μL of “ADP-Glo-reagent” (1 to 1.5 diluted with water) and the resulting mixture was incubated at 22° C. for 1 h to convert the ATP not consumed in the kinase reaction completely to cAMP. Subsequently 2.5 μl of the “kinase detection reagent” (1.2 fold more concentrated than recommended by the producer) were added, the resulting mixture was incubated at 22° C. for 1 h and then the luminescence measured with a suitable measurement instrument (e.g. Viewlux™ from Perkin-Elmer). The amount of emitted light was taken as a measure for the amount of ADP generated and thereby for the activity of the DGKζ.
The data were normalised (enzyme reaction without inhibitor=0% inhibition, all other assay components but no enzyme=100% inhibition).
(In ADP-Glo the light output rises with the ADP produced.)
Usually IC50 stands for the midpoint of a concentration-inhibition curve. Regarding `Cc1ccc(C(=O)c2sc(Nc3ccc(F)cc3)nc2N)cc1` [Example 64], the concentration for half-maximal inhibition (IC50) is over 20000 nM.

Staying with this assay, now noted: recombinant full-length human DGKζ, 55 μM ATP, 7 μM 1,2-dioleoyl-sn-glycerol, 20 min at 22° C.; read-out: IC50 in vitro human DGKζ kinase activity inhibition assay.
`CC(C(N)=O)N(c1ccc(F)cc1)c1nc(N)c(C(=O)c2ccc(C#N)c(F)c2)s1` (single isomer, unassigned) [Example 21.2, 2-(N-[4-amino-5-(4-cyano-3-fluoro-benzoyl)thiazol-2-yl]-4-fluoro-anilino)propanamide]: the half-maximal inhibitory concentration (IC50) was determined as 51 nM.
The same measure, in the same setting: the same measure for `CC(C(N)=O)N(c1ccc(F)cc1)c1nc(N)c(C(=O)c2ccc(OCc3ccccc3)cc2)s1` (single isomer, unassigned) [Example 170.2, 2-(N-[4-amino-5-(4-benzyloxybenzoyl)thiazol-2-yl]-4-fluoro-anilino)propanamide]: 1000 nM.
With `CC(C(N)=O)N(c1ccc(F)c(Cl)c1)c1nc(N)c(C(=O)c2ccncc2)s1` (single isomer, unassigned) [Example 160.1, 2-(N-[4-amino-5-(pyridine-4-carbonyl)thiazol-2-yl]-3-chloro-4-fluoro-anilino)propanamide], the half-maximal inhibitory concentration (IC50) was determined as 115 nM.
As for `CC(C(N)=O)N(c1ccc(F)cc1)c1nc(N)c(C(=O)c2ccc(OCC(=O)Nc3ccc(Cl)cc3)cc2)s1` (single isomer, unassigned) [Example 145, 2-(N-[4-amino-5-[4-[2-(4-chloroanilino)-2-oxo-ethoxy]benzoyl]thiazol-2-yl]-4-fluoro-anilino)propanamide], the 50% inhibitory concentration (IC50) was 2.66 nM.
Still for that read-out and setting: the same measure for `CNC(=O)COc1ccc(C(=O)c2sc(N(c3ccc(F)cc3)C(C)C(N)=O)nc2N)cc1` (single isomer, unassigned) [Example 150, 2-(N-[4-amino-5-[4-[2-(methylamino)-2-oxo-ethoxy]benzoyl]thiazol-2-yl]-4-fluoro-anilino)propanamide]: 372 nM; for `CC(C(N)=O)N(c1cccc(F)c1)c1nc(N)c(C(=O)c2ccccc2)s1` (single isomer, unassigned) [Example 74.2, 2-(N-(4-amino-5-benzoyl-thiazol-2-yl)-3-fluoro-anilino)propanamide]: 81.4 nM.
